Where “and” joins values, the source holds several entries; their conditions need not be identical. Equal entries are not always repeated. Toxic doses and inconclusive results are not listed. Cut-off read from the data, not from the text of the source: active = T/C of 150% or more; inactive = T/C below 125%.
Tested on: L1210 leukemia ip in BDF1 mice, survival T/C
Assay: NCI In Vivo Anticancer Drug Screen. Data for tumor model L1210 Leukemia (intraperitoneal) in B6D2F1 (BDF1) mice
Settings: endpoint: mean survival time, higher = longer survival
Procedure, shortened: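 Antitumor effect is assessed in tumor-bearing animals. Survival in the compound arm is compared with a vehicle-dosed control arm and expressed as their quotient.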

[1] = dose: 100.0 mg/kg/injection, schedule: Q01DX001 (ip), vehicle: carboxymethylcellulose (CMC)
[2] = dose: 100.0 mg/kg/injection, schedule: Q01DX009 (ip), vehicle: Klucel (hydroxypropylcellulose) (HPC)
[3] = dose: 100.0 mg/kg/injection, schedule: Q04DX003 (ip), vehicle: Klucel (hydroxypropylcellulose) (HPC)
[4] = dose: 200.0 mg/kg/injection, schedule: Q01DX009 (ip), vehicle: Klucel (hydroxypropylcellulose) (HPC)
[5] = dose: 200.0 mg/kg/injection, schedule: Q04DX003 (ip), vehicle: Klucel (hydroxypropylcellulose) (HPC)
[6] = dose: 400.0 mg/kg/injection, schedule: Q04DX003 (ip), vehicle: Klucel (hydroxypropylcellulose) (HPC)
[7] = dose: 100.0 mg/kg/injection, schedule: Q04DX003 (ip), vehicle: saline
[8] = dose: 200.0 mg/kg/injection, schedule: Q04DX003 (ip), vehicle: saline
[9] = dose: 400.0 mg/kg/injection, schedule: Q04DX003 (ip), vehicle: saline
[10] = dose: 50.0 mg/kg/injection, schedule: Q01DX009 (ip), vehicle: Klucel (hydroxypropylcellulose) (HPC)
[11] = dose: 100.0 mg/kg/injection, schedule: Q01DX001 (ip), vehicle: saline
[12] = dose: 200.0 mg/kg/injection, schedule: Q01DX001 (ip), vehicle: saline
[13] = dose: 400.0 mg/kg/injection, schedule: Q01DX001 (ip), vehicle: saline

Measured: T/C

C=CC1CN2CCC1CC2C(O)c1ccnc2ccccc12 (stereo unspecified) (tested in a mixture with another compound)
inactive: dose: 25.0 mg/kg/injection, schedule: Q01DX009 (ip), vehicle: saline with Tween-80 101 % of control | dose: 50.0 mg/kg/injection, schedule: Q01DX009 (ip), vehicle: saline with Tween-80 98 % of control | [1] 91 % of control | dose: 100.0 mg/kg/injection, schedule: Q01DX009 (ip), vehicle: saline with Tween-80 93 % of control | dose: 200.0 mg/kg/injection, schedule: Q01DX001 (ip), vehicle: carboxymethylcellulose (CMC) 98 % of control | dose: 400.0 mg/kg/injection, schedule: Q01DX001 (ip), vehicle: carboxymethylcellulose (CMC) 93 % of control

CN(C)Cc1ccc(NC(=O)c2ccc(C(=O)Nc3ccc(CN(C)C)cc3)cc2)cc1
inactive: dose: 15.0 mg/kg/injection, schedule: Q01DX Z (ip), vehicle: carboxymethylcellulose (CMC) 103 % of control | dose: 30.0 mg/kg/injection, schedule: Q01DX Z (ip), vehicle: carboxymethylcellulose (CMC) 106 % of control | dose: 60.0 mg/kg/injection, schedule: Q01DX Z (ip), vehicle: carboxymethylcellulose (CMC) 106 % of control | dose: 120.0 mg/kg/injection, schedule: Q01DX Z (ip), vehicle: carboxymethylcellulose (CMC) 117 % of control

O=C(c1ccc(Cl)cc1)C1Cc2ccccc2C1=O (stereo unspecified)
inactive: [2] 97 % of control | [3] 101 % of control | [4] 94 % of control | [5] 101 % of control | dose: 400.0 mg/kg/injection, schedule: Q01DX009 (ip), vehicle: Klucel (hydroxypropylcellulose) (HPC) 91 % of control | [6] 97 % of control

CC(CC(C)O)=NCCN=C(C)CC(C)O.[Ni] (stereo unspecified)
inactive: dose: 6.25 mg/kg/injection, schedule: Q01DX009 (ip), vehicle: saline with Tween-80 108 % of control | dose: 12.5 mg/kg/injection, schedule: Q01DX009 (ip), vehicle: saline with Tween-80 89 % of control

CCNC(=O)Oc1ccc(S(=O)(=O)F)cc1Cl
inactive: dose: 25.0 mg/kg/injection, schedule: Q01DX001 (ip), vehicle: carboxymethylcellulose (CMC) 91 % of control | dose: 50.0 mg/kg/injection, schedule: Q01DX001 (ip), vehicle: carboxymethylcellulose (CMC) 107 % of control | [1] 98 % of control and 100 % of control

CC[C@@]1(O)C(=O)OCc2c1cc1n(c2=O)Cc2cc3cc(OC)ccc3nc2-1
active: dose: 0.97 mg/kg/injection, schedule: Q01DX009 (ip), vehicle: saline 203 % of control | dose: 1.4 mg/kg/injection, schedule: Q01DX009 (ip), vehicle: saline 225 % of control | dose: 2.5 mg/kg/injection, schedule: Q01DX001 (ip), vehicle: saline 162 % of control | dose: 4.4 mg/kg/injection, schedule: Q01DX001 (ip), vehicle: saline 160 % of control | dose: 5.0 mg/kg/injection, schedule: Q01DX001 (ip), vehicle: saline 176 % of control | dose: 6.6 mg/kg/injection, schedule: Q01DX001 (ip), vehicle: saline 178 % of control | dose: 10.0 mg/kg/injection, schedule: Q01DX001 (ip), vehicle: saline 172 % of control and 250 % of control | dose: 646.0 micrograms/kg/injection, schedule: Q01DX009 (ip), vehicle: saline 150 % of control
inactive: dose: 0.36 mg/kg/injection, schedule: Q01DX001 (ip), vehicle: saline 114 % of control | dose: 0.55 mg/kg/injection, schedule: Q01DX001 (ip), vehicle: saline 122 % of control | dose: 0.83 mg/kg/injection, schedule: Q01DX001 (ip), vehicle: saline 120 % of control | dose: 2.2 mg/kg/injection, schedule: Q01DX009 (ip), vehicle: saline 97 % of control | dose: 15.0 mg/kg/injection, schedule: Q01DX001 (ip), vehicle: saline 122 % of control | dose: 20.0 mg/kg/injection, schedule: Q01DX001 (ip), vehicle: saline 112 % of control | dose: 36.0 micrograms/kg/injection, schedule: Q01DX009 (ip), vehicle: saline 95 % of control | dose: 56.0 micrograms/kg/injection, schedule: Q01DX009 (ip), vehicle: saline 104 % of control | dose: 84.0 micrograms/kg/injection, schedule: Q01DX009 (ip), vehicle: saline 115 % of control | dose: 127.0 micrograms/kg/injection, schedule: Q01DX009 (ip), vehicle: saline 121 % of control | dose: 287.0 micrograms/kg/injection, schedule: Q01DX009 (ip), vehicle: saline 123 % of control | dose: 430.0 micrograms/kg/injection, schedule: Q01DX009 (ip), vehicle: saline 117 % of control

CSc1ncc(Br)c(Cl)n1
inactive: dose: 5.0 mg/kg/injection, schedule: Q01DX001 (ip), vehicle: carboxymethylcellulose (CMC) 95 % of control | dose: 10.0 mg/kg/injection, schedule: Q01DX001 (ip), vehicle: carboxymethylcellulose (CMC) 98 % of control | dose: 20.0 mg/kg/injection, schedule: Q01DX001 (ip), vehicle: carboxymethylcellulose (CMC) 95 % of control | dose: 40.0 mg/kg/injection, schedule: Q01DX001 (ip), vehicle: carboxymethylcellulose (CMC) 93 % of control | dose: 80.0 mg/kg/injection, schedule: Q01DX001 (ip), vehicle: carboxymethylcellulose (CMC) 93 % of control

COc1ccc(C(Br)C(Br)C(=O)c2ccc3c(c2)OCO3)cc1OC (stereo unspecified)
inactive: [7] 92 % of control | [8] 89 % of control | [9] 98 % of control

CCN(CC)CCOC(=O)C1CC1(c1ccccc1)c1ccccc1 (stereo unspecified)
inactive: dose: 25.0 mg/kg/injection, schedule: Q01DX009 (ip), vehicle: Klucel (hydroxypropylcellulose) (HPC) 98 % of control | [10] 87 % of control | [2] 95 % of control and 98 % of control

COc1ccc(C(=S)N2CCN(c3cccc(Cl)c3)CC2)cc1
inactive: [11] 96 % of control | [12] 91 % of control | [13] 91 % of control

C[n+]1cn(CCCl)c2ccccc21
inactive: dose: 10.0 mg/kg/injection, schedule: Q01DX Z (ip), vehicle: saline 93 % of control | dose: 30.0 mg/kg/injection, schedule: Q01DX Z (ip), vehicle: saline 95 % of control

COc1cccc(OC)c1C#N
inactive: [10] 95 % of control | [2] 96 % of control | [3] 98 % of control | [4] 95 % of control | [5] 98 % of control

CC(C)(C)CC(N)=O
inactive: [11] 106 % of control | dose: 100.0 mg/kg/injection, schedule: Q01DX009 (ip), vehicle: saline 101 % of control | [3] 117 % of control | [7] 103 % of control | dose: 133.0 mg/kg/injection, schedule: Q01DX009 (ip), vehicle: Klucel (hydroxypropylcellulose) (HPC) 111 % of control | dose: 133.0 mg/kg/injection, schedule: Q04DX003 (ip), vehicle: Klucel (hydroxypropylcellulose) (HPC) 123 % of control | [12] 97 % of control | [4] 111 % of control | dose: 200.0 mg/kg/injection, schedule: Q01DX009 (ip), vehicle: saline 89 % of control | [5] 124 % of control | [8] 97 % of control | dose: 300.0 mg/kg/injection, schedule: Q01DX009 (ip), vehicle: Klucel (hydroxypropylcellulose) (HPC) 105 % of control | dose: 300.0 mg/kg/injection, schedule: Q04DX003 (ip), vehicle: Klucel (hydroxypropylcellulose) (HPC) 98 % of control | [13] 103 % of control | dose: 400.0 mg/kg/injection, schedule: Q01DX009 (ip), vehicle: saline 97 % of control | [6] 109 % of control | [9] 103 % of control

N#C/C(=C1/N=C(N)NC1=O)c1ccc(Cl)cc1
inactive: dose: 25.0 mg/kg/injection, schedule: Q01DX001 (ip), vehicle: saline with Tween-80 92 % of control | dose: 50.0 mg/kg/injection, schedule: Q01DX001 (ip), vehicle: saline with Tween-80 89 % of control | dose: 100.0 mg/kg/injection, schedule: Q01DX001 (ip), vehicle: saline with Tween-80 94 % of control

CCCCCc1cc(O)c(CCCC)c(O)c1
inactive: dose: 6.25 mg/kg/injection, schedule: Q04DX002 (ip), vehicle: other 97 % of control | dose: 12.5 mg/kg/injection, schedule: Q04DX002 (ip), vehicle: other 110 % of control | dose: 25.0 mg/kg/injection, schedule: Q04DX002 (ip), vehicle: other 93 % of control | dose: 50.0 mg/kg/injection, schedule: Q04DX002 (ip), vehicle: other 93 % of control
